From PMC7525662, “Preclinical dosimetry models and the prediction of clinical doses of novel positron emission tomography radiotracers” (Scientific Reports, 2020)
Marks after values point to notes of the source that are not given here.

How the values were obtained:
[1] = OLINDA/EXM predicted clinical doses: adult male phantom, non-normalised τ, iterative; parameters: species or system Sprague–Dawley rats; settings: rat, in vivo
Procedure: (§1) PET studies were reconstructed using filtered-back projection (FBP) and Mediso’s iterative Tera-Tomo 3D reconstruction algorithm with the following settings: 4 iterations, 6 subsets, full detector model, normal regularization, spike filter on, voxel size 0.4 mm and 400‒600 keV energy window. PET data were corrected for randoms, scatter and attenuation. Time-activity curves for each source organ, whole-body and remainder of the body were plotted. […] Residence times (τ) were determined for each radiotracer in source organs, whole-body and remaining (any activity assigned to the whole-body but not assigned to a source organ). Each preclinical source organ’s τ was determined by calculating the area under its respective time-activity curve (activity normalised to the percentage maximum injected dose as a function of time) using the trapezoid method. […] From each individual animal, eight dosimetry models were constructed from all possible combinations of image reconstruction method (FBP or iterative), τ (non-normalised or normalised to human organ masses), and sex of phantom (male or female).

[2] = Residence times normalised to human organ masses, iterative reconstruction; parameters: species or system Sprague–Dawley rats; settings: rat, in vivo
Procedure: as §1, with “female). Supplementary table 1. Scaling (normalisation) factors applied to residence times of PET radiotracers in male Sprague-Dawley rats to predict human adult residence times. […] Stabin et al. 2006 ^4); WB: Whole Body.” for “female).”

[3] = Comparison of predicted doses across the eight dosimetry models and radiotracers; parameters: species or system Sprague–Dawley rats; settings: rat, in vivo
Procedure: Time-activity curves for each source organ, whole-body and remainder of the body were plotted. […] Residence times (τ) were determined for each radiotracer in source organs, whole-body and remaining (any activity assigned to the whole-body but not assigned to a source organ). Each preclinical source organ’s τ was determined by calculating the area under its respective time-activity curve (activity normalised to the percentage maximum injected dose as a function of time) using the trapezoid method. […] From each individual animal, eight dosimetry models were constructed from all possible combinations of image reconstruction method (FBP or iterative), τ (non-normalised or normalised to human organ masses), and sex of phantom (male or female). All graphs and statistical analyses were generated and performed in GraphPad Prism 5.01 (GraphPad Software Inc., California, USA). One-way ANOVA followed by a Dunnett’s multiple comparison post-hoc test with [^18F]FDG as the control was used to determine which novel radiotracers’ biodistribution and dosimetry differed from [^18F]FDG in the same organs. All statistical tests used α = 0.05 as the measure for statistical significance. Bland–Altman plots were calculated as previously described[33],[34].

[4] = Whole-body PET biodistribution in rats; type: in vivo, Sprague–Dawley rats; settings: PET images, i.v. bolus, 240 min
Procedure: On the day of imaging, rats were anaesthetised with 2‒2.5% isoflurane (50/50 oxygen/nitrous oxide, 1 L/min), then transferred to the preclinical PET/CT scanner (nanoPET/CT, Mediso, Hungary) and placed in a supine position. A CT scan (semi-circular full trajectory, maximum field of view, 480 projections, 50 kVp, 300 ms and 1:4 binning) was acquired for attenuation correction.
Immediately after radiotracer administration, a 240 min emission scan using 4 beds (50% overlap) was obtained using 3-dimensional 1:5 mode and re-binned as follows: 7 × 1 min, 2 × 5 min and 4 × 10 min. Throughout the PET/CT scanning session, animal temperature and respiration rate were monitored and controlled.
PET studies were reconstructed using filtered-back projection (FBP) and Mediso’s iterative Tera-Tomo 3D reconstruction algorithm with the following settings: 4 iterations, 6 subsets, full detector model, normal regularization, spike filter on, voxel size 0.4 mm and 400‒600 keV energy window. PET data were corrected for randoms, scatter and attenuation.
Reconstructed whole-body PET/CT images were imported into PMOD 3.8 software (PMOD Technologies, Switzerland) and static regions-of-interest (ROIs) were selected in approximately every third axial slice of source organs in animal subjects, which included the kidneys (left and right), urinary bladder, lungs (right and left), heart, brain, liver and intestine. […]

| Compound | Effective Dose (mSv/MBq), Average ± SD [1] [mSv/MBq] | Estimated Absorbed Dose of Organ, Average ± SD: Adrenals [1] [mGy/MBq] | Estimated Absorbed Dose of Organ, Average ± SD: Brain [1] [mGy/MBq] | Estimated Absorbed Dose of Organ, Average ± SD: Breasts [1] [mGy/MBq] | Estimated Absorbed Dose of Organ, Average ± SD: Gallbladder Wall [1] [mGy/MBq] | Estimated Absorbed Dose of Organ, Average ± SD: Heart Wall [1] [mGy/MBq] | Estimated Absorbed Dose of Organ, Average ± SD: Kidneys [1] | Estimated Absorbed Dose of Organ, Average ± SD: LLI Wall [1] | Estimated Absorbed Dose of Organ, Average ± SD: Liver [1] [mGy/MBq] | Estimated Absorbed Dose of Organ, Average ± SD: Lungs [1] [mGy/MBq] | Estimated Absorbed Dose of Organ, Average ± SD: Muscle [1] [mGy/MBq] | Estimated Absorbed Dose of Organ, Average ± SD: Osteogenic Cells [1] [mGy/MBq] | Estimated Absorbed Dose of Organ, Average ± SD: Pancreas [1] [mGy/MBq] | Estimated Absorbed Dose of Organ, Average ± SD: Red Marrow [1] [mGy/MBq] | Estimated Absorbed Dose of Organ, Average ± SD: Skin [1] [mGy/MBq] | Estimated Absorbed Dose of Organ, Average ± SD: Small Intestine [1] [mGy/MBq] | Estimated Absorbed Dose of Organ, Average ± SD: Spleen [1] [mGy/MBq] | Estimated Absorbed Dose of Organ, Average ± SD: Stomach Wall [1] [mGy/MBq] | Estimated Absorbed Dose of Organ, Average ± SD: Testes [1] [mGy/MBq] | Estimated Absorbed Dose of Organ, Average ± SD: Thymus [1] [mGy/MBq] | further results |
| --- | --- | --- | --- | --- | --- | --- | --- | --- | --- | --- | --- | --- | --- | --- | --- | --- | --- | --- | --- | --- | --- |
| O=C[C@H]([18F])[C@@H](O)[C@H](O)[C@H](O)CO [FDG, 2-deoxy-2-[^18F]fluoro-D-glucose] | 6.24E-02 | 9.39E-03 | 5.73E-03 | 5.93E-03 | 1.04E-02 | 2.60E-02 | 3.58E-02 § mGy/MBq | 1.92E-01 ‡ mGy/MBq | 9.19E-03 | 6.86E-03 | 1.15E-02 | 1.26E-02 | 9.88E-03 | 1.08E-02 | 6.97E-03 | 1.91E-02 | 9.14E-03 | 9.73E-03 | 1.82E-02 | 7.56E-03 | Estimated Absorbed Dose of Organ, Average ± SD: Thyroid [1]: 6.91E-03 mGy/MBq; Estimated Absorbed Dose of Organ, Average ± SD: Total Body [1]: 1.19E-02 mGy/MBq; Estimated Absorbed Dose of Organ, Average ± SD: ULI Wall [1]: 1.49E-02 mGy/MBq; Estimated Absorbed Dose of Organ, Average ± SD: Urinary Bladder Wall [1]: 5.53E-01 † mGy/MBq; Normalised Residence Time (h), Average: Remaining [2]: 1.36 h; organs predicted to receive the highest absorbed doses (ranking) [3]: the urinary bladder, followed by the lower large intestinal (LLI) wall and kidneys; organs with highest uptake [4]: brain, heart, kidneys and urinary bladder |
| NOTA-RGDfK [existing Al^18F-labelled NOTA-RGDfK peptide PET radiotracer; precursor NOTA-RGDfK (1)] | 6.30E-02 | 7.60E-03 | 1.47E-03 | 4.25E-03 | 8.74E-03 | 6.02E-03 | 4.41E-02 § mGy/MBq | 1.50E-01 ‡ mGy/MBq | 8.14E-03 | 3.96E-03 | 1.06E-02 | 1.00E-02 | 7.83E-03 | 9.28E-03 | 5.85E-03 | 1.73E-02 | 7.40E-03 | 7.65E-03 | 1.89E-02 | 5.18E-03 | Estimated Absorbed Dose of Organ, Average ± SD: Thyroid [1]: 5.01E-03 mGy/MBq; Estimated Absorbed Dose of Organ, Average ± SD: Total Body [1]: 1.06E-02 mGy/MBq; Estimated Absorbed Dose of Organ, Average ± SD: ULI Wall [1]: 1.35E-02 mGy/MBq; Estimated Absorbed Dose of Organ, Average ± SD: Urinary Bladder Wall [1]: 6.89E-01 † mGy/MBq; Normalised Residence Time (h), Average: Remaining [2]: 1 h; organs predicted to receive the highest absorbed doses (ranking) [3]: urinary bladder > LLI wall > kidneys |
